target: T1, histamine-3 receptors (H3 receptor) (Rattus norvegicus, UniProt Q9QYN8); test: (3H)-N-α-methylhistamine binding to rat cortical membranes; conditions: not given
T1 construct: from tissue; host or cells: male Sprague-Dawley rat brain cortex membranes
Procedure: Briefly, male Sprague-Dawley rat brain cortices were homogenized (1 g tissue/10 mL buffer) in 50 mM Tris-HCl/5 mM EDTA containing protease inhibitor cocktail (Calbiochem) using a polytron set at 20,500 rpm. Homogenates were centrifuged for 20 minutes at 40,000×g. The supernatant was decanted, and pellets were weighed. The pellet was resuspended by polytron homogenization in 40 mL 50 mM Tris-HCl/5 mM EDTA with protease inhibitors and centrifuged for 20 minutes at 40,000×g. […] Rat cortical membranes (12 mg wet weight/tube) were incubated with (^3H)-N-α-methylhistamine (˜0.6 nM) with or without H3 receptor antagonists in a total incubation volume of 0.5 mL of 50 mM Tris-HCl/5 mM EDTA (pH 7.7). Test compounds were dissolved in DMSO to provide a 20 mM solution, serially diluted and then added to the incubation mixtures prior to initiating the incubation assay by addition of the membranes. Thioperamide (3 μM) was used to determine nonspecific binding. Binding incubations were conducted for 30 minutes at 25° C. and terminated by addition of 2 mL of ice cold 50 mM Tris-HCl (pH 7.7) and filtration through 0.3% polyethylenimine-soaked Unifilter plates (Packard). These filters were washed 4 additional times with 2 mL of ice-cold 50 mM Tris-HCl and dried for 1 hour. Radioactivity was determined using liquid scintillation counting techniques. Results were analyzed by Hill transformation and Ki values were determined using the Cheng-Prusoff equation.

T1 sequence (Q9QYN8 whole entry): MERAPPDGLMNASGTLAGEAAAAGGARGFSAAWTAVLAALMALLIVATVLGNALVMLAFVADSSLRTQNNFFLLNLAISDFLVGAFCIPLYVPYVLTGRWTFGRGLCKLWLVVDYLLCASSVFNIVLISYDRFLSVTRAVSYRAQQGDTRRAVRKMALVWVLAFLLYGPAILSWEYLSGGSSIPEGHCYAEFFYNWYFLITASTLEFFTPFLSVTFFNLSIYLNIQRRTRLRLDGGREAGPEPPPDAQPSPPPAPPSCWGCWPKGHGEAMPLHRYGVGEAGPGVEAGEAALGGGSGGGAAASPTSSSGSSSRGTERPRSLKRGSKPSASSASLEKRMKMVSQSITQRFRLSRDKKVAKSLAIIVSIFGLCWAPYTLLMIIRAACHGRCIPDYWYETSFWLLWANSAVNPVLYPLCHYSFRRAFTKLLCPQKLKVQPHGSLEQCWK

| Compound | Ki [nM] |
| --- | --- |
| CN(C)[C@H]1CCN(CCc2cc3cc(-c4ccc(C#N)cc4)ccc3o2)C1 [Example 9, 4-(2-{2-[(3S)-3-(dimethylamino)pyrrolidinyl]ethyl}-1-benzofuran-5-yl)benzonitrile] | 136 |

same assay, conditions: male Sprague-Dawley rat brain cortical membranes; (3H)-N-α-methylhistamine ~0.6 nM; 30 minutes at 25° C.; Cheng-Prusoff equation; read-out: Ki

| Compound | Ki [nM] |
| --- | --- |
| 4-(2-{2-[(2R,6S)-2,6-dimethylpiperidinyl]ethyl}-1-benzofuran-5-yl)benzonitrile [Example 11] | 19.3 |
| 4-[4-(2-{2-[(2R,6S)-2,6-dimethylpiperidinyl]ethyl}-1-benzofuran-5-yl)benzoyl]morpholine [Example 29] | 8.46 |
| CCN(CC)CCc1cc2cc(-c3ccc(C#N)cc3)ccc2o1 [Example 5, 4-{2-[2-(diethylamino)ethyl]-1-benzofuran-5-yl}benzonitrile] | 49.4 |
| N#Cc1ccc(-c2ccc3oc(CCN4CC[C@@H](O)C4)cc3c2)cc1 [Example 7, 4-(2-{2-[(3R)-3-hydroxypyrrolidinyl]ethyl}-1-benzofuran-5-yl)benzonitrile] | 94.9 |
| C[C@@H]1CC[C@@H](C)N1CCc1cc2cc(-c3ccc(C#N)cc3)ccc2o1 [Example 12, 4-(2-{2-[(2R,5R)-2,5-dimethylpyrrolidinyl]ethyl}-1-benzofuran-5-yl)benzonitrile] | 38.4 |
| CC1CCN(CCc2cc3cc(-c4ccc(C#N)cc4)ccc3o2)CC1 [Example 14, 4-{2-[2-(4-methyl-1-piperidinyl)ethyl]-1-benzofuran-5-yl}benzonitrile] | 25.1 |
| COC(=O)[C@@H]1CCCN1CCc1cc2cc(-c3ccc(C#N)cc3)ccc2o1 [Example 15, 4-(2-{2-[2-pyrrolidinemethyl carboxylate]ethyl}-1-benzofuran-5-yl)benzonitrile] | 1000 |
| N#Cc1ccc(-c2ccc3oc(CCN4CC=CCC4)cc3c2)cc1 [Example 16, 4-{2-[2-(3,6-dihydro-1(2H)-pyridinyl)ethyl]-1-benzofuran-5-yl}benzonitrile] | 92.2 |
| CN(CCc1cc2cc(-c3ccc(C#N)cc3)ccc2o1)C(C)(C)C [Example 18, 4-(2-{2-[tert-butyl (methyl)amino]ethyl}-1-benzofuran-5-yl)benzonitrile] | 60.5 |
| CC(C)N(C)CCc1cc2cc(-c3ccc(C#N)cc3)ccc2o1 [Example 19, 4-(2-{2-[isopropyl(methyl)amino]ethyl}-1-benzofuran-5-yl)benzonitrile] | 77.7 |
| CC(C)CN(C)CCc1cc2cc(-c3ccc(C#N)cc3)ccc2o1 [Example 20, 4-(2-{2-[isobutyl(methyl)amino]ethyl}-1-benzofuran-5-yl)benzonitrile] | 180 |
| CCN(CCc1cc2cc(-c3ccc(C#N)cc3)ccc2o1)C(C)C [Example 21, 4-(2-{2-[ethyl(isopropyl)amino]ethyl}-1-benzofuran-5-yl)benzonitrile] | 44.4 |
| CCCN(CC)CCc1cc2cc(-c3ccc(C#N)cc3)ccc2o1 [Example 22, 4-(2-{2-[ethyl(propyl)amino]ethyl}-1-benzofuran-5-yl)benzonitrile] | 69.2 |
| CC1CCCN1CCc1cc2cc(-c3ccc(C(=O)N4CCOCC4)cc3)ccc2o1 (stereo not drawn) [Example 23, 4-(4-{2-[2-(2-methyl-1-pyrrolidinyl)ethyl]-1-benzofuran-5-yl}benzoyl)morpholine] | 1.97 |
| O=C(c1ccc(-c2ccc3oc(CCN4CCCCC4)cc3c2)cc1)N1CCOCC1 [Example 24, 4-(4-{2-[2-(1-piperidinyl)ethyl]-1-benzofuran-5-yl}benzoyl)morpholine] | 11.7 |
| CCN(CC)CCc1cc2cc(-c3ccc(C(=O)N4CCOCC4)cc3)ccc2o1 [Example 25, N,N-diethyl-N-(2-{5-[4-(4-morpholinylcarbonyl)phenyl]-1-benzofuran-2-yl}ethyl)amine] | 14.4 |
| CC1CCCCN1CCc1cc2cc(-c3ccc(C(=O)N4CCOCC4)cc3)ccc2o1 (stereo not drawn) [Example 26, 4-(4-{2-[2-(2-methyl1--piperidinyl)ethyl]-1-benzofuran-5-yl}benzoyl)morpholine] | 27.2 |
| O=C(c1ccc(-c2ccc3oc(CCN4CC[C@@H](O)C4)cc3c2)cc1)N1CCOCC1 [Example 27, (3R)-1-(2-{5-[4-(4-morpholinylcarbonyl)phenyl]-1-benzofuran-2-yl}ethyl)-3-pyrrolidinol] | 55.4 |
| O=C(c1ccc(-c2ccc3oc(CCN4CCOCC4)cc3c2)cc1)N1CCOCC1 [Example 32, 4-(4-{2-[2-(4-morpholine)ethyl]-1-benzofuran-5-yl}benzoyl)morpholine] | 265 |

| Compound | Ki [nM] |
| --- | --- |
| O=C(c1ccc(-c2ccc3oc(CCN4CC=CCC4)cc3c2)cc1)N1CCOCC1 [Example 33, 4-(4-{2-[2-(3,6-dihydro-1(2H)-pyridinyl)ethyl]-1-benzofuran-5-yl}benzoyl)morpholine] | 32.3 |
| CN(CCc1cc2cc(-c3ccc(C(=O)N4CCOCC4)cc3)ccc2o1)C(C)(C)C [Example 35, N-(tert-butyl)-N-methyl-N-(2-{5-[4-(4-morpholinylcarbonyl)phenyl]-1-benzofuran-2-yl}ethyl)amine] | 67.9 |
| CC(C)N(C)CCc1cc2cc(-c3ccc(C(=O)N4CCOCC4)cc3)ccc2o1 [Example 36, N-isopropyl-N-methyl-N-(2-{5-[4-(4-morpholinylcarbonyl)phenyl]-1-benzofuran-2-yl}ethyl)amine] | 52.1 |
| CC(C)CN(C)CCc1cc2cc(-c3ccc(C(=O)N4CCOCC4)cc3)ccc2o1 [Example 37, N-isobutyl-N-methyl-N-(2-{5-[4-(4-morpholinylcarbonyl)phenyl]-1-benzofuran-2-yl}ethyl)amine] | 248 |
| CCN(CCc1cc2cc(-c3ccc(C(=O)N4CCOCC4)cc3)ccc2o1)C(C)C [Example 38, N-ethyl-N-isopropyl-N-(2-{5-[4-(4-morpholinylcarbonyl)phenyl]-1-benzofuran-2-yl}ethyl)amine] | 26 |
| CN(C)CCc1cc2cc(-c3ccc(C(=O)N4CCOCC4)cc3)ccc2o1 [Example 39, N,N-dimethyl-N-(2-{5-[4-(4-morpholinylcarbonyl)phenyl]-1-benzofuran-2-yl}ethyl)amine] | 148 |
| CCCN(CC)CCc1cc2cc(-c3ccc(C(=O)N4CCOCC4)cc3)ccc2o1 [Example 40, N-ethyl-N-(2-{5-[4-(4-morpholinylcarbonyl)phenyl]-1-benzofuran-2-yl}ethyl)-N-propylamine] | 32.2 |
| Cc1c(CCN2CCCC2)c(=O)oc2ccc(-c3ccc(C#N)cc3)cc12 [Example 41, 4-{4-methyl-2-oxo-3-[2-(1-pyrolidinyl)ethyl]-2H-chromen-6-yl}benzonitrile] | 51.5 |
| Cc1c(CCN2CCCCC2)c(=O)oc2ccc(-c3ccc(C#N)cc3)cc12 [Example 42, 4-{4-methyl-2-oxo-3-[2-(1-piperidinyl)ethyl]-2H-chromen-6-yl}benzonitrile] | 41.8 |
| CCN(CC)CCc1c(C)c2cc(-c3ccc(C#N)cc3)ccc2oc1=O [Example 43, 4-{3-[2-(diethylamino)ethyl]-4-methyl-2-oxo-2H-chromen-6-yl}benzonitrile] | 14.6 |
| O=C(c1ccc(-c2ccc3oc(CCN4CCCC4)cc3c2)nc1)N1CCOCC1 [Example 44, 4-[(6-{2-[2-(1-pyrrolidinyl)ethyl]-1-benzofuran-5-yl}-3-pyridinyl)carbonyl]morpholine] | 17.2 |
| O=C(c1ccc(-c2ccc3oc(CCN4CCCCC4)cc3c2)nc1)N1CCOCC1 [Example 46, 4-[(6-{2-[2-(1-piperidinyl)ethyl]-1-benzofuran-5-yl}-3-pyridinyl)carbonyl]morpholine] | 18.5 |
| CCN(CC)CCc1cc2cc(-c3ccc(C(=O)N4CCOCC4)cn3)ccc2o1 [Example 47, 4-[(6-{2-[2-(N,N-diethyl)ethyl]-1-benzofuran-5-yl}-3-pyridinyl)carbonyl]morpholine] | 59.8 |
| C[C@@H]1CC[C@@H](C)N1CCc1cc2cc(-c3ccc(C(=O)N4CCOCC4)cn3)ccc2o1 [Example 49, 4-{[6-(2-{2-[(2R,5R)-2,5-dimethylpyrrolidinyl]ethyl}-1-benzofuran-5-yl)-3-pyridinyl]carbonyl}morpholine] | 14.4 |
| O=C(c1ccc(-c2ccc3oc(CCN4CCCCCC4)cc3c2)nc1)N1CCOCC1 [Example 51, 4-{[6-(2-{2-[1-azepanyl]ethyl}-1-benzofuran-5-yl)-3-pyridinyl]carbonyl}morpholine] | 3.07 |
| CC1CCN(CCc2cc3cc(-c4ccc(C(=O)N5CCOCC5)cn4)ccc3o2)CC1 [Example 52, 4-[(6-{2-[2-(4-methyl-1-piperidinyl)ethyl]-1-benzofuran-5-yl}-3-pyridinyl)carbonyl]morpholine] | 162 |
| O=C(c1ccc(-c2ccc3oc(CCN4CCOCC4)cc3c2)nc1)N1CCOCC1 [Example 53, 4-[(6-{2-[2-(4-morpholinyl)ethyl]-1-benzofuran-5-yl}-3-pyridinyl)carbonyl]morpholine] | 242 |
| CN(CCc1cc2cc(-c3ccc(C(=O)N4CCOCC4)cn3)ccc2o1)C(C)(C)C [Example 54, N-(tert-butyl)-N-methyl-N-(2-{5-[5-(4-morpholinylcarbonyl)-2-pyridinyl]-1-benzofuran-2-yl}ethyl)amine] | 197 |
| CC(C)CN(C)CCc1cc2cc(-c3ccc(C(=O)N4CCOCC4)cn3)ccc2o1 [Example 55, N-isobutyl-N-methyl-N-(2-{5-[5-(4-morpholinylcarbonyl)-2-pyridinyl]-1-benzofuran-2yl}ethyl)amine] | 575 |

— patent US20020183309A1, “Novel amines as histamine-3 receptor ligands and their therapeutic applications” (priority 2001, published 2002)
